The text below walks through data of patent publication US11932636B2, “RAD51 inhibitors” (Cyteir Therapeutics, Inc., priority 2019, dated 2024).

For the experiment, the system named is Daudi cells (AID positive). Description: Compound primary screening: cell death in AID positive Daudi cells (Cell-Titer Glo, Day 7). The class given is cell-based. To be noted: Homo sapiens, 168 h, read-out: Cellular activity in AID + (Daudi). In a few lines:
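AID-positive Daudi cells were seeded at 1250 cells per well and treated with serially diluted compound delivered from a DMSO/media master plate. Cultures were incubated at 37 °C, and cell death was measured on Day 7 with Cell-Titer Glo luminescence.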

Where [1] appears, read: Daudi cells, AID positive, cell death on Day 7, Cell-Titer Glo.

Structures are written as SMILES. Where two headings read alike, the source gives them in different places. Where only a bound is given, the exact number is not on record here.

Regarding `CCNS(=O)(=O)c1cc(OCCC(C)C)ccc1-c1cnc([C@H]2CC[C@H](NC(=O)OC(C)C)CC2)s1` [Compound 99, isopropyl trans-N-[4-[5-[2-(ethylsulfamoyl)-4-isopentyloxy-phenyl]thiazol-2-yl]cyclohexyl]carbamate], the EC50 under setting [1] lay within 100 to 1000 nM.
Turning to `CCNS(=O)(=O)c1cc(OCCC(C)C)ccc1-c1cnc([C@H]2CC[C@H](NC(=O)OC3COC3)CC2)s1` [Compound 100, oxetan-3-yl trans-N-[4-[5-[2-(ethylsulfamoyl)-4-isopentyloxy-phenyl]thiazol-2-yl]cyclohexyl]carbamate], the EC50 under setting [1] lay within 100 to 1000 nM.
On the same count and under the same terms, the figure for `CC(C)CCOc1ccc(-c2cnc([C@H]3CC[C@H](NC(=O)OC(C)C)CC3)s2)c(S(=O)(=O)NC(C)(C)C)c1` [Compound 101, isopropyl trans-N-[4-[5-[2-(tert-butylsulfamoyl)-4-isopentyloxy-phenyl]thiazol-2-yl]cyclohexyl]carbamate] is 1000 to 10000 nM.
On the same count and under the same terms, the figure for `CC(C)CCOc1ccc(-c2cnc([C@H]3CC[C@H](NC(=O)OC4COC4)CC3)s2)c(S(=O)(=O)NC(C)(C)C)c1` [Compound 102, oxetan-3-yl trans-N-[4-[5-[2-(tert-butylsulfamoyl)-4-isopentyloxy-phenyl]thiazol-2-yl]cyclohexyl]carbamate] is 1000 to 10000 nM.
Regarding `CCNS(=O)(=O)c1cc(Cc2ncco2)ccc1-c1cnc([C@H]2CC[C@H](NC(=O)OC(C)C)CC2)s1` [Compound 103, isopropyl trans-N-[4-[5-[2-(ethylsulfamoyl)-4-(oxazol-2-ylmethyl)phenyl]thiazol-2-yl]cyclohexyl]carbamate], under “Daudi”, the EC50 was in the range of 100 to 1000 nM.
For the compound `CCNS(=O)(=O)c1cc(-c2ncco2)ccc1-c1cnc([C@H]2CC[C@H](NC(=O)OC(C)C)CC2)s1` [Compound 104, isopropyl trans-N-[4-[5-[2-(ethylsulfamoyl)-4-oxazol-2-yl-phenyl]thiazol-2-yl]cyclohexyl]carbamate], the EC50 (Daudi) is 100 to 1000 nM.
Turning to `CCNS(=O)(=O)c1cc(Nc2nccn2C)ccc1-c1cnc([C@H]2CC[C@H](NC(=O)OC(C)C)CC2)s1` [Compound 105, isopropyl trans-N-[4-[5-[2-(ethylsulfamoyl)-4-[(1-methylimidazol-2-yl)amino]phenyl]thiazol-2-yl]cyclohexyl]carbamate], the EC50 under setting [1] is under 100 nM.
For `CCNS(=O)(=O)c1cc(Nc2nccn2C)ccc1-c1cnc([C@H]2CC[C@@H](NC(=O)OC(C)C)CC2)s1` [Compound 106, isopropyl cis-N-[4-[5-[2-(ethylsulfamoyl)-4-[(1-methylimidazol-2-yl)amino]phenyl]thiazol-2-yl]cyclohexyl]carbamate], the EC50 under setting [1] is under 100 nM.
With `CCNS(=O)(=O)c1cc(Nc2nccn2CC(C)C)ccc1-c1cnc([C@H]2CC[C@H](NC(=O)OC(C)C)CC2)s1` [Compound 107, isopropyl trans-N-[4-[5-[2-(ethylsulfamoyl)-4-[(1-isobutylimidazol-2-yl)amino]phenyl]thiazol-2-yl]cyclohexyl]carbamate], under setting [1], the EC50 is under 100 nM.
Regarding `CCNS(=O)(=O)c1cc(N)ccc1-c1cnc([C@H]2CC[C@H](NC(=O)OC3CC3)CC2)s1` [Compound 108, cyclopropyl trans-N-[4-[5-[4-amino-2-(ethylsulfamoyl)phenyl]thiazol-2-yl]cyclohexyl]carbamate], the EC50 under setting [1] was under 100 nM.
With `CCNS(=O)(=O)c1cc(Nc2ncc[nH]2)ccc1-c1cnc([C@H]2CC[C@H](NC(=O)OC3CC3)CC2)s1` [Compound 109, cyclopropyl trans-N-[4-[5-[2-(ethylsulfamoyl)-4-(1H-imidazol-2-ylamino)phenyl]thiazol-2-yl]cyclohexyl]carbamate], the EC50 (Daudi) lay within 100 to 1000 nM.
In the case of `CC(C)OC(=O)N[C@H]1CC[C@@H](c2ncc(-c3ccc(Nc4ncc[nH]4)cc3S(=O)(=O)NC(C)(C)C)s2)CC1` [Compound 110, isopropyl cis-N-[4-[5-[2-(tert-butylsulfamoyl)-4-(1H-imidazol-2-ylamino)phenyl]thiazol-2-yl]cyclohexyl]carbamate], the EC50 under setting [1] is 100 to 1000 nM.
Regarding `CCNS(=O)(=O)c1cc(Nc2cc(C(C)C)ccn2)ccc1-c1cnc([C@H]2CC[C@H](NC(=O)OC(C)C)CC2)s1` [Compound 111, isopropyl trans-N-[4-[5-[2-(ethylsulfamoyl)-4-[(4-isopropyl-2-pyridyl)amino]phenyl]thiazol-2-yl]cyclohexyl]carbamate], the EC50 under setting [1] lay within 100 to 1000 nM.
Turning to `CCNS(=O)(=O)c1cc(Nc2cccc(C(C)C)n2)ccc1-c1cnc([C@H]2CC[C@H](NC(=O)OC(C)C)CC2)s1` [Compound 112, isopropyl trans-N-[4-[5-[2-(ethylsulfamoyl)-4-[(6-isopropyl-2-pyridyl)amino]phenyl]thiazol-2-yl]cyclohexyl]carbamate], the EC50 under setting [1] is under 100 nM.
Take `CCNS(=O)(=O)c1cc(Nc2ccc(C(C)C)cn2)ccc1-c1cnc([C@H]2CC[C@H](NC(=O)OC(C)C)CC2)s1` [Compound 113, isopropyl trans-N-[4-[5-[2-(ethylsulfamoyl)-4-[(5-isopropyl-2-pyridyl)amino]phenyl]thiazol-2-yl]cyclohexyl]carbamate]: the EC50 under setting [1] is under 100 nM.
For the compound `CCNS(=O)(=O)c1cc(N2CC(OC(C)C)C2)ccc1-c1cnc([C@H]2CC[C@H](NC(=O)OC(C)C)CC2)s1` [Compound 114, isopropyl trans-N-[4-[5-[2-(ethylsulfamoyl)-4-[3-isopropoxyazetidin-1-yl]phenyl]thiazol-2-yl]cyclohexyl]carbamate], the EC50 under setting [1] lay within 100 to 1000 nM.
With `CCNS(=O)(=O)c1cc(Nc2nnc(C(C)C)s2)ccc1-c1cnc(C2CCC(NC(=O)OC(C)C)CC2)s1` (stereo not drawn) [Compound 115, isopropyl trans-N-[4-[5-[2-(ethylsulfamoyl)-4-[(5-isopropyl-1,3,4-thiadiazol-2-y)amino]phenyl]thiazol-2-yl]cyclohexyl]carbamate], the EC50 under setting [1] was under 100 nM.
Still for that read-out and setting: the figure for `CCNS(=O)(=O)c1cc(NC2(C)COC2)ccc1-c1cnc([C@H]2CC[C@H](NC(=O)OC(C)C)CC2)s1` [Compound 116, isopropyl trans-N-[4-[5-[2-(ethylsulfamoyl)-4-[(3-methyloxetan-3-yl)amino]phenyl]thiazol-2-yl]cyclohexyl]carbamate] is under 100 nM; for `CCNS(=O)(=O)c1cc(N(C)c2nccn2C)ccc1-c1cnc([C@H]2CC[C@H](NC(=O)OC(C)C)CC2)s1` [Compound 117, isopropyl trans-N-[4-[5-[2-(ethylsulfamoyl)-4-[methyl(1-methyl-1H-imidazol-2-yl)amino]phenyl]thiazol-2-yl]cyclohexyl]carbamate] it is 100 to 1000 nM; for `CCNS(=O)(=O)c1cc(Nc2nnco2)ccc1-c1cnc([C@H]2CC[C@H](NC(=O)OC(C)C)CC2)s1` [Compound 118, isopropyl trans-N-[4-[5-[2-(ethylsulfamoyl)-4-[(1,3,4-oxadiazol-2-yl)amino]phenyl]thiazol-2-yl]cyclohexyl]carbamate] it is 100 to 1000 nM.
Regarding `CCNS(=O)(=O)c1cc(Nc2nncs2)ccc1-c1cnc([C@H]2CC[C@H](NC(=O)OC(C)C)CC2)s1` [Compound 119, isopropyl trans-N-[4-[5-[2-(ethylsulfamoyl)-4-[(1,3,4-thiadiazol-2-yl)amino]phenyl]thiazol-2-yl]cyclohexyl]carbamate], the EC50 under setting [1] was under 100 nM.
With `CCNS(=O)(=O)c1cc(Nc2cn[nH]c2)ccc1-c1cnc([C@H]2CC[C@H](NC(=O)OC(C)C)CC2)s1` [Compound 120, isopropyl trans-N-[4-[5-[2-(ethylsulfamoyl)-4-[(1H-pyrazol-4-yl)amino]phenyl]thiazol-2-yl]cyclohexyl]carbamate], the EC50 under setting [1] was under 100 nM.
In the case of `CCNS(=O)(=O)c1cc(Nc2ccn[nH]2)ccc1-c1cnc([C@H]2CC[C@H](NC(=O)OC(C)C)CC2)s1` [Compound 121, isopropyl trans-N-[4-[5-[2-(ethylsulfamoyl)-4-[(1H-pyrazol-5-yl)amino]phenyl]thiazol-2-yl]cyclohexyl]carbamate], the EC50 under setting [1] is under 100 nM.
Consider `CCNS(=O)(=O)c1cc(Nc2cnccn2)ccc1-c1cnc([C@H]2CC[C@H](NC(=O)OC(C)C)CC2)s1` [Compound 122, isopropyl trans-N-[4-[5-[2-(ethylsulfamoyl)-4-[(pyrazin-2-yl)amino]phenyl]thiazol-2-yl]cyclohexyl]carbamate], for which, under setting [1], the EC50 was under 100 nM.
In the case of `CCNS(=O)(=O)c1cc(Nc2cccnn2)ccc1-c1cnc([C@H]2CC[C@H](NC(=O)OC(C)C)CC2)s1` [Compound 123, isopropyl trans-N-[4-[5-[2-(ethylsulfamoyl)-4-[(pyridazin-3-yl)amino]phenyl]thiazol-2-yl]cyclohexyl]carbamate], the EC50 under setting [1] is under 100 nM.
The same measure, in the same setting: with `CCNS(=O)(=O)c1cc(Nc2ccncn2)ccc1-c1cnc([C@H]2CC[C@H](NC(=O)OC(C)C)CC2)s1` [Compound 124, isopropyl trans-N-[4-[5-[2-(ethylsulfamoyl)-4-[(pyrimidin-4-yl)amino]phenyl]thiazol-2-yl]cyclohexyl]carbamate] the figure was under 100 nM; with `CCNS(=O)(=O)c1cc(Nc2ccncc2)ccc1-c1cnc([C@H]2CC[C@H](NC(=O)OC(C)C)CC2)s1` [Compound 125, isopropyl trans-N-[4-[5-[2-(ethylsulfamoyl)-4-[(pyridin-4-yl)amino]phenyl]thiazol-2-yl]cyclohexyl]carbamate], under 100 nM; with `CCNS(=O)(=O)c1cc(Nc2ccccn2)ccc1-c1cnc([C@H]2CC[C@H](NC(=O)OC(C)C)CC2)s1` [Compound 126, isopropyl trans-N-[4-[5-[2-(ethylsulfamoyl)-4-[(pyridin-2-yl)amino]phenyl]thiazol-2-yl]cyclohexyl]carbamate], under 100 nM.
For the compound `CCNS(=O)(=O)c1cc(Nc2ncccn2)ccc1-c1cnc([C@H]2CC[C@H](NC(=O)OC(C)C)CC2)s1` [Compound 127, isopropyl trans-N-[4-[5-[2-(ethylsulfamoyl)-4-[(pyrimidin-2-yl)amino]phenyl]thiazol-2-yl]cyclohexyl]carbamate], under setting [1], the EC50 was in the range of 100 to 1000 nM.
